Measured values taken from patent US8378102B2, “Oxime and hydroxylamine substituted thiazolo[4,5-c] ring compounds and methods” (3M Innovative Properties Company, priority 2005, dated 2013).

In the case of `CC(C)=NOCc1nc2c(N)nc3ccccc3c2s1` [Example 1, Acetone O-[(4-amino[1,3]thiazolo[4,5-c]quinolin-2-yl)methyl]oxime], the melting point was 152 to 153 °C.

Molecule `CC(C)=NOCc1nc2c(N)nc3cc(Br)ccc3c2s1` [Example 2, Acetone O-(4-amino-7-bromo[1,3]thiazolo[4,5-c]quinolin-2-ylmethyl)oxime] has a melting point of 211 to 213 °C.

Work on `CON=Cc1nc2c(N)nc3cc(Br)ccc3c2s1` [Example 3, 4-Amino-7-bromo[1,3]thiazolo[4,5-c]quinoline-2-carbaldehyde O-methyloxime] yielded a melting point of 262 to 264 °C.

Molecule `CON=Cc1nc2c(N)nc3cc(-c4ccccc4)ccc3c2s1` [Example 138, 4-Amino-7-phenyl-thiazolo[4,5-c]quinoline-2-carbaldehyde O-methyl-oxime] has a melting point of 259 to 261 °C.

In the case of `CON=Cc1nc2c(N)nc3cc(-c4cccc(NS(C)(=O)=O)c4)ccc3c2s1` [Example 139, N-{3-[4-Amino-2-(methoxyimino-methyl)-thiazolo[4,5-c]quinolin-7-yl]-phenyl}-methanesulfonamide], the melting point was 254 to 256 °C.
